The NIST ThermoML archive (doi:10.1021/je300312c)
“And” between values parts separate entries of the source, which are not always exact repeats. Identical values can stand only once. Numbers after ± are expanded uncertainties.

Assays:
[1] = for vapor or sublimation pressure: Transpiration method
[2] = Molar enthalpy of transition or fusion; settings: Crystal; DSC

CCn1cnc2ccccc21 [1-ethyl-1H-benzimidazole]
[1], Liquid
Settings | vapor or sublimation pressure [kPa]
328.8 K | 0.00273 ± 0.00011
331.8 K | 0.00334 ± 0.00014
334.3 K | 0.0041 ± 0.00017
336.7 K | 0.00481 ± 0.0002
339.2 K | 0.00591 ± 0.00025
341.7 K | 0.00714 ± 0.0003
343.7 K | 0.00826 ± 0.00034
346.7 K | 0.01029 ± 0.00042
349.1 K | 0.01206 ± 0.00049
351.7 K | 0.01365 ± 0.00056
353.9 K | 0.01678 ± 0.00069
356.7 K | 0.01954 ± 0.00081
358.9 K | 0.02439 ± 0.001
361.2 K | 0.02801 ± 0.0011
363.9 K | 0.03343 ± 0.0014
366.6 K | 0.03948 ± 0.0016
368.9 K | 0.04573 ± 0.0019
372.1 K | 0.05679 ± 0.0023
375.1 K | 0.06706 ± 0.0027

Cn1cnc2ccccc21 [1-methylbenzimidazole]
Settings | Molar enthalpy of transition or fusion [kcal/mol]
[2] | 3.23 ± 0.0956

[1]
Settings | Normal melting temperature [°C] | vapor or sublimation pressure [kPa]
300.7 K, Crystal | – | 0.0002 ± 2e-05
303.2 K, Crystal | – | 0.00026 ± 2e-05
305.6 K, Crystal | – | 0.00034 ± 2e-05
308.1 K, Crystal | – | 0.00046 ± 2e-05
311 K, Crystal | – | 0.00061 ± 3e-05
313.7 K, Crystal | – | 0.00082 ± 4e-05
314.2 K, Crystal | – | 0.00087 ± 4e-05
314.2 K, Liquid | – | 0.00115 ± 5e-05
316.6 K, Liquid | – | 0.00139 ± 6e-05
316.7 K, Crystal | – | 0.00112 ± 5e-05
319 K, Liquid | – | 0.00172 ± 7e-05
319.6 K, Crystal | – | 0.00154 ± 7e-05
321.5 K, Liquid | – | 0.00209 ± 9e-05
322.5 K, Crystal | – | 0.00213 ± 9e-05
324.5 K, Crystal | – | 0.00249 ± 0.0001
324.5 K, Liquid | – | 0.00278 ± 0.00012
325.5 K, Crystal | – | 0.0027 ± 0.00012
326.9 K, Crystal | – | 0.00316 ± 0.00014
326.9 K, Liquid | – | 0.00332 ± 0.00014
329.5 K, Liquid | – | 0.00402 ± 0.00017
331.5 K, Liquid | – | 0.0046 ± 0.0002
334.5 K, Liquid | – | 0.00598 ± 0.00025
335.9 K, Liquid | – | 0.00673 ± 0.00028
336.9 K, Liquid | – | 0.00709 ± 0.00029
337.5 K, Liquid | – | 0.00742 ± 0.00031
339.6 K, Liquid | – | 0.00868 ± 0.00036
341.6 K, Liquid | – | 0.01014 ± 0.00043
344.4 K, Liquid | – | 0.01267 ± 0.00053
347.2 K, Liquid | – | 0.0155 ± 0.00064
349.4 K, Liquid | – | 0.01858 ± 0.00077
351.8 K, Liquid | – | 0.02168 ± 0.00088
354.1 K, Liquid | – | 0.02462 ± 0.0012
354.4 K, Liquid | – | 0.0258 ± 0.0013
356.5 K, Liquid | – | 0.029 ± 0.0012
358.9 K, Liquid | – | 0.03371 ± 0.0014
361.3 K, Liquid | – | 0.0389 ± 0.0016
364 K, Liquid | – | 0.04752 ± 0.0019
366.8 K, Liquid | – | 0.0558 ± 0.0023
368.1 K, Liquid | – | 0.06162 ± 0.0025
369.4 K, Liquid | – | 0.06627 ± 0.0027
372.6 K, Liquid | – | 0.07877 ± 0.0032
374.5 K, Liquid | – | 0.08885 ± 0.0036
376 K, Liquid | – | 0.09738 ± 0.0039
Crystal, DTA | 60.1 ± 0.4 | –

CCCCCn1cnc2ccccc21 [1-pentyl-1H-benzimidazole]
[1], Liquid
Settings | vapor or sublimation pressure
324.7 K | 0.00028 ± 2e-05 kPa
329.1 K | 0.00041 ± 2e-05 kPa
332 K | 0.00054 ± 3e-05 kPa
335.1 K | 0.00073 ± 3e-05 kPa
338.3 K | 0.0009 ± 4e-05 kPa
341.2 K | 0.00118 ± 5e-05 kPa
342.2 K | 0.00124 ± 6e-05 kPa
344 K | 0.00158 ± 7e-05 kPa
347.3 K | 0.00203 ± 8e-05 kPa
350.1 K | 0.00245 ± 0.0001 kPa
350.3 K | 0.00238 ± 0.0001 kPa
353.2 K | 0.00303 ± 0.00013 kPa
353.3 K | 0.00329 ± 0.00014 kPa
356.2 K | 0.00402 ± 0.00023 kPa
356.6 K | 0.00437 ± 0.00024 kPa
359.4 K | 0.00534 ± 0.00022 kPa
361.7 K | 0.00609 ± 0.00025 kPa and 0.0063 ± 0.00026 kPa
364.3 K | 0.00768 ± 0.00032 kPa and 0.0074 ± 0.00031 kPa
366.7 K | 0.00884 ± 0.00036 kPa
369.7 K | 0.0109 ± 0.00044 kPa
372.8 K | 0.0129 ± 0.00053 kPa
375.8 K | 0.01595 ± 0.00065 kPa

CCCn1cnc2ccccc21 [1-propyl-1H-benzimidazole]
[1], Liquid
Settings | vapor or sublimation pressure [kPa]
326.7 K | 0.00166 ± 7e-05
329.1 K | 0.00202 ± 9e-05
331.7 K | 0.00262 ± 0.00011
333.9 K | 0.00298 ± 0.00014
334.3 K | 0.00312 ± 0.00014
336.6 K | 0.00377 ± 0.00016
339.2 K | 0.0047 ± 0.0002
341.4 K | 0.00546 ± 0.00023
344.2 K | 0.00671 ± 0.00028
346.9 K | 0.00797 ± 0.00033
349.3 K | 0.00969 ± 0.00042
351.8 K | 0.01262 ± 0.00052
354.3 K | 0.01444 ± 0.00059
356.8 K | 0.01719 ± 0.0007
359.3 K | 0.01949 ± 0.00081
361.8 K | 0.02422 ± 0.001
364.3 K | 0.02965 ± 0.0012
366.6 K | 0.03507 ± 0.0014
369.3 K | 0.0417 ± 0.0017
372.4 K | 0.05004 ± 0.002
375.9 K | 0.06251 ± 0.0025
